Measured values as given in patent publication US12104192B2, “Method of preparing primary amines from amino acids using enzymatic conversion” (KOREA ADVANCED INSTITUTE OF SCIENCE AND TECHNOLOGY, priority 2020, dated 2024).

The compounds below were run on valine decarboxylase (assay: Enzymatic activity assay of purified valine decarboxylase with amino acid substrates, HPLC detection of primary amine). Conditions: 1 mM amino acid, 0.1 mM PLP, 150 μg purified his-tagged enzyme, 50 mM potassium phosphate buffer pH 7.5, 37° C., 2 hours.
Format: biochemical, Streptomyces viridifaciens
Method: An enzymatic activity assay was performed using a 50 mM potassium phosphate buffer (pH 7.5), and the substrate and enzyme used for the assay were added in the following amounts to the enzyme reaction solution.
Amino acids used as substrates were used at a concentration of 1 mM, and the amino acids used herein were L-alanine, L-2-aminobutyrate, 2-aminoisobutyrate, L-norvaline, L-valine, L-isovaline, L-norleucine, L-leucine, L-isoleucine, 1-aminocyclopentanecarboxylic acid, 1-aminocyclohexanecarboxylic acid, and L-2-phenylglycine. 0.1 mM pyridoxal phosphate (PLP) and 150 μg of the purified valine decarboxylase were added, followed by conducting reaction at 37° C. for 2 hours, and the sample after the reaction was analyzed by HPLC to identify primary amine.
Primary amine production was analyzed using HPLC (1100 Series HPLC; Agilent Technologies, Santa Clara, CA). The primary amine derivatization for analysis was performed in an automatic manner before analysis using an o-phthaldialdehyde (OPA; Sigma, St. Louis, MO) reagent. The OPA reagent for derivatization was prepared by dissolving 0.20 g of OPA reagent in 9.0 mL of methanol and then adding 1.0 mL of 0.40 M (pH 9.0) borate buffer and 160 μL of 2-mercaptoethanol thereto. For derivatization, 1 μL of the sample was mixed with 5 μL of 0.40 M (pH 9.0) borate buffer. Then, 1 μL of the OPA reagent for derivatization prepared above was added thereto, followed by HPLC analysis. Analysis was performed at 25° C. using an Eclipse plus C18 column (4.6×150 mm; Agilent Technologies). Solvent A for analysis was prepared by mixing 1.4 g/L of Na2HPO4 and 3.8 g/L of Na2B4O7·10H2O with 8 mg/L of NaN3, and adjusting the final pH of the resulting mixture to 7.2 using HCl. Solvent B was prepared by mixing 45% acetonitrile and 45% methanol with 10% H2O based on volume %. The solvent was fed at a rate of 2 mL/min. […] The derivatized secondary amines could be analyzed by detecting light with a wavelength of 230 nm using a variable wavelength detector (G1314A; Agilent Technologies).

Conversion of the amino acid substrate to the corresponding primary amine by valine decarboxylase, successfully converted:
NC1(C(=O)O)CCCC1 [1-aminocyclopentanecarboxylic acid]
CCC[C@H](N)C(=O)O [L-norvaline]
CC(C)C[C@H](N)C(=O)O [L-leucine]
CC(C)[C@H](N)C(=O)O [L-valine]
NC1(C(=O)O)CCCCC1 [1-aminocyclohexanecarboxylic acid]
CC[C@](C)(N)C(=O)O [L-isovaline]
N[C@H](C(=O)O)c1ccccc1 [L-2-phenylglycine]
CC[C@H](C)[C@H](N)C(=O)O [L-isoleucine]
CCCC[C@H](N)C(=O)O [L-norleucine]
CC(C)(N)C(=O)O [2-aminobutyrate, 2-aminoisobutyrate]
C[C@H](N)C(=O)O [L-alanine]
L-2-aminobutyrate
